# “And” between values parts separate entries of the source, which are not always exact repeats. Equal values may be shown once. Read-outs that look alike come from different tables or passages of the source.
# Experiments:
# rb 5-HT1B receptors = rb 5-HT1B receptors (Oryctolagus cuniculus, UniProt P49144); conditions: cited from earlier work
# peripheral serotonin = test: Effect of oral CBMIDA on peripheral serotonin production in mice (serum serotonin ELISA), Example 1; assay type: in vivo; conditions: for reduction of peripheral serotonin measured in serum: 4 week old mice
# Method: The ability of selective TPH1 inhibitor CBMIDA to reduce peripheral serotonin measured in serum was tested. Either 250 or 500 mg/kg doses of CBMIDA were administered orally twice in 20 hours to 4 week old mice, 4-5 mice per group. As a control, some mice were untreated and some received 250 mg/kg pCPA orally. […] CBMIDA has been reported to be an EDTA analog that increases osteoid volume in beagle dogs and induces proliferation of rat calvarial-derived osteoblasts in vitro (Xie, et al., Bioorganic & Medicinal Chemistry Letters 15 (2005) 3267-3270, incorporated herein by reference in its entirety).
# (§1) One month old C57Bl/6 inbred male mice, weighing 15-16 g were used in the experiments. Animals were housed under 12 h light/12 h dark conditions in a room with controlled temperature (22° C.) and humidity (60%). Mice had ad libitum access to food and water, and were used after a minimum of 4 days of acclimatization to the housing conditions. All experiments were conducted following Columbia University Guidelines for the Animal Use and Care of laboratory mice.
# Before the experiments, animals were separated into individual cages one day prior to the experiment. Compounds were fed orally (gavage) to the mouse, calculated according to the weight of the mouse, twice a day at 1700 h and at 1100 h. […] This route created two potential barriers for the compound to reach the brain. […] Control animals received the same volume of vehicle. Blood was collected through heart puncture on isofluorane-anaesthesized animals and allowed to clot for 5 minutes on ice. The serum was separated, snap chilled in liquid nitrogen and frozen at −80° C. till analyzed. Brainstems from all the animals were collected and processed for brain serotonin measurement through HPLC.
# (§2) The Serotonin ELISA kit obtained from the Fitzgerald company was used to measure derivatized serotonin from serum. Derivatization is part of the sample preparation. Serotonin present in the serum was first quantitatively acylated into N-Acylserotonin using the acylation reagent. The principle of the assay is based on competitive ELISA, wherein serotonin that is bound to the solid phase of the plate and the N-acylserotonin compete for the fixed number of antiserum binding sites. When the reaction is in equilibrium, free antigen and free antigen-antiserum complexes are removed by washing.
# The antibody bound to the solid phase serotonin is then detected using antirabbit/peroxidase. The substrate TMB/Peroxidase reaction is read at 450 nm. The amount of antibody bound to the solid phase serotonin is inversely proportional to the concentration of serotonin in the sample.
# Catechol-3,6-bis methyleneiminodiacetic acid (CBMIDA) (basic structure is an EDTA-like compound and the catechol ring is at the centre) synthesized at the Columbia University Chemistry division, and para-chlorophenylalanine (pCPA) obtained from Sigma Aldrich Corp. were used. Each compound was dissolved with twice molar solution of NaHCO3 in water and given to mouse orally at 250 and 500 mg/kg/dose.
# [1] = system: peripheral serotonin production; test: Pilot study of tryptophan hydroxylase inhibitors on peripheral serotonin production in ovariectomized mice, Example 12; assay type: in vivo; conditions: for effect on serotonin levels: oral (gavage) twice a day, dose not given
# Method: as §1, with “6-week” for “One month”, “female” for “male”, “12-14 g,” for “15-16 g”
# Animals were separated into different groups one day prior to the experiments. Mice were ovariectomized (OVX) under anaesthesia (Avertin). Compounds were fed orally (Gavage) twice a day at 1700 h and at 1100 h for the pilot study while for the long term study compounds were given at 1700 h once a day. […] This route creates two potential barriers for the compound to reach the brain. […] Control animals received the same volume of vehicle. Blood was collected through heart puncture on isofluorane-anaesthesized animals, allowed to clot for 5 minutes on ice and then serum was separated, snap chilled in liquid nitrogen and frozen at −80° C. till analyzed. Mice were observed daily for any physical or behavioral abnormality during the course of investigation.
# • Group 1: Vehicle • Group 2: Compound 1 • Group 3: Compound 2 • Group 4: Compound 3 • Group 5: Compound 4 (LP-533401) Experiment II: Effect of Compounds 1 and 4 on Protection from OVX-Induced Bone Loss Protocol 1: Gavage Feeding of the Compounds Will be Started 1 Day after OVX for 6 Weeks • Group 1: Sham treatment • Group 2: OVX • Group 3: OVX+Compound 1 (250 mg/kg) • Group 4: OVX+Compound 1 (500 mg/kg) • Group 5: OVX+Compound 4 (250 mg/kg) Protocol 2: Gavage Feeding of the Compounds Will be Started 2 Weeks after OVX for 6 Weeks • Group 1: Sham treatment • Group 2: OVX • Group 3: OVX+Compound 1 (250 mg/kg) • Group 4: OVX+Compound 1 (500 mg/kg) • Group 5: OVX+Compound 4 (250 mg/kg) Protocol 3: Gavage Feeding of the Compounds Will be Started 4 Weeks after OVX for 6 Weeks • Group 1: Sham treatment • Group 2: OVX • Group 3: OVX+Compound 1 (250 mg/kg) • Group 4: OVX+Compound 1 (500 mg/kg) • […] Serotonin Measurement in Serum
# as §2, with “acylated” for “acylated into N-Acylserotonin”, “reagent into N-Acylserotonin.” for “reagent.”, “washing. The antibody bound to the solid phase serotonin is then detected by anti-rabbit/peroxidase. The substrate TMB/Peroxidase reaction is read at 450 nm. The amount of antibody bound to the solid phase serotonin is inversely proportional to the concentration of serotonin in the sample.” for “washing.”
# We used Catechol-3,6-bis methyleneiminodiacetic acid [(CBMIDA) Compound 1: basic structure is a EDTA-like compound and the catechol ring is at the center)] synthesized at the Columbia University Chemistry division and para-Chlorophenylalanine (pCPA) obtained from Sigma Aldrich Corp. for our experiments. Compounds were dissolved with twice molar solution of NaHCO3 in water and given to mice orally at 250 and 500 mg/kg/dose. Compounds 2 and 3 were dissolved in water.
# osteoid volume = conditions: beagle dogs; cited from earlier work
# [2] = system: rat calvarial-derived osteoblasts; conditions: in vitro; cited from earlier work
# [3] = given orally, cited from earlier work
# primary osteoblasts = test: Real-time PCR of cyclin and osteoblast-specific gene expression in primary osteoblasts treated with serotonin; assay type: cell-based, mouse; conditions: serotonin 50 to 100 μM, 24 hr, versus vehicle, FIG. 8B
# Method: To test whether serotonin regulates the expression of cyclins in osteoblasts, a real-time PCR analysis of cyclin expression in primary osteoblasts treated with serotonin or vehicle was performed. […] In contrast, expression of Runx2, Osteocalcin and Type I collagen was not modified (FIG. 8B).
# Calvaria osteoblasts were extracted by triple collagenase/trypsine digestion from 4 day-old CD1 pups and differentiated with ascorbic acid as previously described (Ducy et al., 2000, Cell 100:197-207).
# (§3) Osteoblasts were treated in serum-free medium with vehicle or Serotonin (50 to 100 μM, Sigma) for 24 hr. Total RNA were extracted with Trizol (Invitrogen). cDNA were generated using the ABI Reverse transcriptase system and random hexanucleotide primers. Real-time PCR was performed using superarray primers on a Stratagene real time PCR cycler and Actin expression was used as endogenous control. Chromatin immunoprecipitation assays (ChIP) were performed by standard procedures using primary osteoblasts. Microarray analysis was performed as described previously (Glass et al., 2005, Dev. Cell 8:751-764).
# CREB = CREB phosphorylation (Western blot) and CREB binding to Cyclin D1 promoter (ChIP) in primary osteoblasts treated with serotonin; assay type: cell-based, mouse
# Method: Decreased expression of Cyclin D1 is a major feature of both Lrp5 deficiency and serotonin treatment of osteoblasts (FIGS. 1 and 8). One transcription factor that is known to modulate the expression of cyclin genes and is expressed in osteoblasts is CREB (Fu et al., 2005, Cell 122:803-815). Therefore, whether serotonin could decrease CREB activity in these cells was tested. […] Furthermore, a CREB binding site in the Cyclin D1 mouse promoter was identified and it was shown using ChIP assays that serotonin decreased binding of CREB to this promoter (FIG. 9B). These two observations raise the hypothesis that CREB could be mediating serotonin action on osteoblasts.
# as §3
# Osteoblasts were treated in serum-free medium with vehicle or Serotonin (50 to 100 μM, Sigma) for 24 hr. […]
# [4] = system: Serotonin levels in the small intestine; conditions: mice, twice per day over 3-4 days, about 30-90 mg/kg; after six consecutive doses; cited from earlier work
# brain-derived serotonin = conditions: mice, twice per day over 3-4 days, about 30-90 mg/kg; cited from earlier work
# rb 5-HT1B receptors, sequence (P49144 whole entry): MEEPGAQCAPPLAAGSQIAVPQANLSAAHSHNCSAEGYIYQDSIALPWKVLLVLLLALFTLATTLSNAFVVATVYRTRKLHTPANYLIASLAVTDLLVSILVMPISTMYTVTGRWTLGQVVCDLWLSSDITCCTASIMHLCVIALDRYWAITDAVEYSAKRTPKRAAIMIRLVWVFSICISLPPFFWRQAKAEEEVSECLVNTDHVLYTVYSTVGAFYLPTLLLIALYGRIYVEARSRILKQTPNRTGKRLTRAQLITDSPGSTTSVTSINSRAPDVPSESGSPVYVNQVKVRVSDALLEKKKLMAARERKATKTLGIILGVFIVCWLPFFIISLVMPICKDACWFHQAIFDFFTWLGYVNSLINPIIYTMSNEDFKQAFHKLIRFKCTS
smiles,measurement,setting,value
O=C(c1ccc(F)cc1)C1CCN(CCn2c(=O)[nH]c3ccccc3c2=O)CC1 [ketanserin],behaviour as antagonist,rb 5-HT1B receptors,"as silent, competitive"
CSc1ccc2c(c1)C(N1CCN(C)CC1)Cc1ccccc1S2 (stereo not drawn) [methiothepin],behaviour as antagonist,rb 5-HT1B receptors,"as silent, competitive"
"O=C(O)CN(CC(=O)O)Cc1ccc(CN(CC(=O)O)CC(=O)O)c(O)c1O [CBMIDA, Catechol-3,6-bis methyleneiminodiacetic acid]",reduction of peripheral serotonin measured in serum,peripheral serotonin; 250 mg/kg orally twice in 20 hours,~45%
same,decrease of serotonin serum levels,"peripheral serotonin; 250 mg/kg, oral, compared with 500 mg/kg, FIG. 11",lesser extent
same,reduction of peripheral serotonin measured in serum,peripheral serotonin; 500 mg/kg orally twice in 20 hours,about 80%
same,serotonin serum levels decreased to % below normal,"peripheral serotonin; 500 mg/kg twice daily, oral, FIG. 11",80%
same,dose response of serum serotonin reduction,peripheral serotonin; 250 and 500 mg/kg versus control animals,dose response curve
same,peripheral serotonin upon oral feeding,peripheral serotonin; FIG. 11 legend,reduces
same,decrease of serotonin serum levels,"[1]; 250 mg/kg, oral, compared with 500 mg/kg",lesser extent
same,serotonin serum levels decreased to % below normal,"[1]; 500 mg/kg twice daily, oral, FIG. 15",80%
same,dose response of serotonin levels,"[1]; different doses compared to control animals, FIG. 15",dose response curve
same,osteoid volume,osteoid volume,increases
same,proliferation of osteoblasts,[2],induces
same,share of the oral amount transported into the circulation (blood),[3],3-5% and 5-10%
same,share of the oral amount transported into the circulation (blood),[3]; listed as Compound 1,5-10%
"NCCc1c[nH]c2ccc(O)cc12 [serotonin, 5-hydroxytryptamine]",expression of Cyclin D1 and D2,primary osteoblasts,decreased
same,"expression of Runx2, Osteocalcin and Type I collagen",primary osteoblasts,not modified
same,CREB phosphorylation,CREB; FIG. 9A,significantly decreased
same,binding of CREB to the Cyclin D1 promoter (ChIP),CREB; FIG. 9B,decreased
CN1CCc2cccc3c2[C@H]1Cc1cc(CN(CC(=O)O)CC(=O)O)c(O)c(O)c1-3 [Compound 3],effect on serotonin levels,[1]; pilot study,decreased the serotonin levels dramatically
same,toxicity to the animals (looked very lethargic and sick),"[1]; oral, pilot study",toxic
CCOC(=O)[C@@H](N)Cc1ccc(-c2cc(OC(c3ccc(-c4cccc(F)c4)cc3)C(F)(F)F)nc(N)n2)cc1 (stereo partly drawn) [LP-615819],Serotonin levels in the small intestine,[4],significantly lowered
same,brain-derived serotonin,brain-derived serotonin,unchanged
NC(=O)CN(CC(=O)O)Cc1ccc(CN(CC(N)=O)CC(=O)O)c(O)c1O [Compound 2],effect on serotonin levels,[1]; pilot study,minimal effect

# Reference: patent US8759364B2, “Methods of treating bone mass diseases” (The Trustees of Columbia University in the City of New York, priority 2008, dated 2014)
